Data as given in patent US12318373B2, “Methods of treating gastrointestinal stromal tumors” (Deciphera Pharmaceuticals, LLC, priority 2019, dated 2025).

What was measured:
[1] = system: GIST; assay: Example 4: phase 1 study, efficacy by line of therapy at 150 mg QD; type: in vivo, human
Experimental: Efficacy and safety results from the escalation and expansion phases of a phase 1 study for patients with GIST treated at ripretinib 150 mg QD as the starting dose in 28-day cycles are presented. Local, investigator-assessed Response Evaluation Criteria in Solid Tumors (RECIST 1.1) response assessments were performed every 2 cycles, and patients in the expansion cohorts who progressed per RECIST 1.1 were allowed to dose escalate to 150 mg BID.
142 patients with GIST in the escalation and expansion phases were treated at 150 mg QD dose. Number of patients by line of therapy were as follows: 31 2nd line, 28 3rd line, and 83≥4th line patients. 135 patients (95.1%) had KIT-mutant GIST, and 7 patients (4.9%) had PDGFRA-mutant GIST.
For example, the confirmed-only complete response (CR), partial response (PR), stable disease, and progressive disease are presented in Table 4. The objective response rate data in Table 4 relates to the proportion of patients with CR+PR. The median PFS data in Table 4 refers to progression-free survival per investigator assessment, by line of therapy.

[2] = Solubility; type: physicochemical
[3] = system: patients with advanced GIST; assay: Example 2: patient reported outcomes (EQ-5D-5L VAS, EORTC QLQ-C30); type: in vivo, human; details: 150 mg QD
Experimental: Patient reported outcomes were assessed by EQ-5D-5L, which provides a visual analogue scale (VAS), and EORTC QLQ-C30, which provides physical function and role function scales. The EQ-5D-5L VAS (or EQ-VAS) records the respondent's overall current health on a vertical visual analogue scale and provides a quantitative measure of the patient's perception of overall health. These patient outcomes were reported across 28-day cycles of receiving 150 mg QD ripretinib or placebo.
The EORTC QLQ-C30 is an assessment of function and symptoms of therapy by cancer patient, and is not specific to any cancer. The EORTC QLQ-C30 is a 30-question plus one global health status, including 5 functional scales, 3 symptom scales and a global health status.

CCn1c(=O)c(-c2cc(NC(=O)Nc3ccccc3)c(F)cc2Br)cc2cnc(NC)cc21 [ripretinib]
Duration of response, Median ([1]; 150 mg QD, 2nd Line): 80 weeks | Best response (confirmed only): PR, % ([1]; 150 mg QD, 2nd Line (n = 31)): (19.4) % | Best response (confirmed only): Progressive disease, % ([1]; 150 mg QD, 2nd Line (n = 31)): (12.9) % | Best response (confirmed only): Stable disease, % ([1]; 150 mg QD, 2nd Line (n = 31)): (67.7) % | PFS, Median ([1]; 150 mg QD, 2nd Line (n = 31), investigator assessment): 46.4 weeks | Duration of response: Number of events ([1]; 150 mg QD, 2nd Line, n = 6 responders): 3 | Best response (confirmed only): PR, % ([1]; 150 mg QD, 3rd Line (n = 28)): (14.3) % | Best response (confirmed only): Progressive disease, % ([1]; 150 mg QD, 3rd Line (n = 28)): (21.4) % | Best response (confirmed only): Stable disease, % ([1]; 150 mg QD, 3rd Line (n = 28)): (64.3) % | PFS, Median ([1]; 150 mg QD, 3rd Line (n = 28), investigator assessment): 36.3 weeks | Duration of response: Number of events ([1]; 150 mg QD, 3rd Line, n = 4 responders): 1 | Duration of response, Median ([1]; 150 mg QD, ≥4th Line): 76.1 weeks | Best response (confirmed only): No response assessment, % ([1]; 150 mg QD, ≥4th Line (n = 83)): (6.0) % | Best response (confirmed only): Not evaluable, % ([1]; 150 mg QD, ≥4th Line (n = 83)): (1.2) % | Best response (confirmed only): PR, % ([1]; 150 mg QD, ≥4th Line (n = 83)): (7.2) % | Best response (confirmed only): Progressive disease, % ([1]; 150 mg QD, ≥4th Line (n = 83)): (26.5) % | Best response (confirmed only): Stable disease, % ([1]; 150 mg QD, ≥4th Line (n = 83)): (59.0) % | PFS, Median ([1]; 150 mg QD, ≥4th Line (n = 83), investigator assessment): 23.9 weeks | Duration of response: Number of events ([1]; 150 mg QD, ≥4th Line, n = 6 responders): 3 | PFS of second and third-line patients with Exons 9, 11, 13, or 17 KIT mutations ([1]; FIG. 27): comparable PFS | Clinical benefit after dose escalation to 150 mg BID (PFS1 vs PFS2) ([1]; regardless of line of therapy, investigator assessment, FIGS. 25A, 25B): additional clinical benefit | Solubility [2]: pH-dependent solubility | EORTC QLQ-C30 role function score, average improvement from baseline to C2D1 ([3]; 70 patients): 3.5 | EQ-VAS score, average improvement from baseline to Cycle 2, Day 1 (C2D1) ([3]; 70 patients): 3.7 | EORTC QLQ-C30 physical function score, average improvement from baseline to C2D1 ([3]; 71 patients): 1.6 | EORTC QLQ-C30 Question C29 (overall health) score improvement ([3]; scale 1 to 7, 70 patients): 0.20 | EORTC QLQ-C30 Question C30 (overall quality of life) score improvement ([3]; scale 1 to 7, 70 patients): 0.28
